In patent US11713338B2, “Cyclic peptides multimers targeting α-4-β-7 integrin” (priority 2016, dated 2023):

Assays:
Type in all cases: cell-based
[1] = target: T1, integrin α4β7 on α4β7+ memory T helper cells (Homo sapiens, UniProt P13612+P26010); experiment: MAdCAM-1 competition / receptor occupancy assay in human whole blood, α4β7-positive Th memory cells; settings: human whole blood; for IC50: inhibition of MAdCAM-1 binding to α4β7-positive Th memory cells, FACS, read-out: MADCAM FACS α4β7 Th mem
T1 construct: endogenous in cells
T1 sequence (P13612 34-1032): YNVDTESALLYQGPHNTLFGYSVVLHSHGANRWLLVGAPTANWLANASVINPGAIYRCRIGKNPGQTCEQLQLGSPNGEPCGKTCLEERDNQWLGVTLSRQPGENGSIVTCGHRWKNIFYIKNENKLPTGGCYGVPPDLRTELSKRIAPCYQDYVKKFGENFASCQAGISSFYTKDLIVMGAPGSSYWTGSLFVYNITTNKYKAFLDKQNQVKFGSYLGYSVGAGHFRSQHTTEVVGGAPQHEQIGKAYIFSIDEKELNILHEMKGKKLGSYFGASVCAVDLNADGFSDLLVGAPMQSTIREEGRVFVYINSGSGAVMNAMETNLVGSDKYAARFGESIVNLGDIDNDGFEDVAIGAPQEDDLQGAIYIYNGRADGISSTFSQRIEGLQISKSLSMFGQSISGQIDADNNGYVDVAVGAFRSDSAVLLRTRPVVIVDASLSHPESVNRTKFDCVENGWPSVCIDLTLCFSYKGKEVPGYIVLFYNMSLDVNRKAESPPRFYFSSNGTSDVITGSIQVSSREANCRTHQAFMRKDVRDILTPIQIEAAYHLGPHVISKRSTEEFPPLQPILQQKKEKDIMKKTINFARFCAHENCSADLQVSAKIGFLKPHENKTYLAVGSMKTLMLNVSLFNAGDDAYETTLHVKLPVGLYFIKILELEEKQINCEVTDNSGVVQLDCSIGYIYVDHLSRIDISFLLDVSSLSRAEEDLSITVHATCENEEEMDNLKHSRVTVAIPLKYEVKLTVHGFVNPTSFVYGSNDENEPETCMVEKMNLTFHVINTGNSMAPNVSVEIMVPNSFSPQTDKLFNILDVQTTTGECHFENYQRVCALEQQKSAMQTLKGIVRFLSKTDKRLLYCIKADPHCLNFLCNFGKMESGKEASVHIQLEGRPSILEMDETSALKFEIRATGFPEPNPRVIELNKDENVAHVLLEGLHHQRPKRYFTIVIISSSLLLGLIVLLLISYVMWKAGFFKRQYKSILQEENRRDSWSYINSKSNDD
T1 sequence (P26010 20-798): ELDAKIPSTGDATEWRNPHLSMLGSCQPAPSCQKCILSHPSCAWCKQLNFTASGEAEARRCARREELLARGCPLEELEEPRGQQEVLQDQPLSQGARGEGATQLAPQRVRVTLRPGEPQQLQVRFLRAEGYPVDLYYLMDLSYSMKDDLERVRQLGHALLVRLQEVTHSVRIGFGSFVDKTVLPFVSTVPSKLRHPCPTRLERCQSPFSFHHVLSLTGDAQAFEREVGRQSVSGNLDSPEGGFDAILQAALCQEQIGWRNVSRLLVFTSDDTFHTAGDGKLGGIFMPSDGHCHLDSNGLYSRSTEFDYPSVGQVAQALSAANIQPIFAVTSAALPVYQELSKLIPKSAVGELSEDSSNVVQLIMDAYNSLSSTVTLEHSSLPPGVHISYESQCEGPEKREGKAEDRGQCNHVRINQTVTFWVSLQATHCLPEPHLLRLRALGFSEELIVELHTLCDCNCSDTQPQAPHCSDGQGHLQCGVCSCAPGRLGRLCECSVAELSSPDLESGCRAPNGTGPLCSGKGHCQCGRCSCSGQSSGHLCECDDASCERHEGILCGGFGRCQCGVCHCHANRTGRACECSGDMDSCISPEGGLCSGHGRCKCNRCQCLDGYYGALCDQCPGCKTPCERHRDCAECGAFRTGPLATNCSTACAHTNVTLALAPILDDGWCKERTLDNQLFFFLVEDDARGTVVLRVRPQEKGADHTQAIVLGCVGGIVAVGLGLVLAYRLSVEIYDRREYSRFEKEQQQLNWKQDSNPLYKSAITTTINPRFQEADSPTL
Protocol: Analyte Competition Assay in CD4+ Integrin α4+β7-Lo Memory T Cells
Receptor occupancy in primary cells was determined by measuring the amount of biotinylated human recombinant MAdCAM-1-FC or human recombinant VCAM-1-Fc bound to selected cell populations using flow cytometry. Human recombinant MAdCAM-1-FC or human recombinant VCAM-1-FC (R&D systems) were biotinylated using commercially available reagents and protocol (Pierce).
Whole blood was collected from human donors in sodium heparin tubes. […] Cells were washed twice with 1 mL of 1X DPBS calcium magnesium free (CMF) (ThermoFisher Scientific) and resuspended in 100 microL of DPBS CMF.
Biotinylated human recombinant MAdCAM-1-Fc or VCAM-1-Fc were added at saturating concentration and incubated at room temperature for 1 hour. […] Cells were washed with 1 mL stain buffer-FBS (BD Biosciences) and resuspended in 100 μl stain Buffer-FBS (BD Biosciences) containing 4 mM MnCl2. […] Cells were then washed with 1 mL stain buffer-FBS and resuspended in […] stain buffer-FBS. The cells were incubated in the dark for 30 minutes at room temperature with 1 ul Streptavidin APC (Biolegend 0.2 mg/ml) and a panel of antibodies for the detection of memory T helper a4b7-positive cells subset. And amount of 5.0 ul each of the following antibodies were used; CD45 FITC (BioLegend 200 ug/ml), CD29 APC Cy7 (BioLegend 100 ug/ml), Integrin beta7 PE, (BioLegend concentration 50 μg/mL), CD49d V421 (BioLegend 50 μg/mL), CD3 V510 (BioLegend 30 μg/mL), CD4 PECy7 (BioLegend 100 μg/mL), CD45RO PerCP, BioLegend 200 μg/mL). The cells were then washed with stain-buffer-FBS and resuspended in 150 microL stain buffer-FBS for acquisition on the flow cytometer (BD FACSCanto™ flow cytometer and BDFACSDiva™ software). FACS data was acquire by electronic gating on the basis of forward versus side scatter, The cytometer was set to collect 20,000 events in each tube. Cell population were determined using the following markers, CD45+, CD3+, CD4+, CD45RO+, CD49d+, integrin b7, biotinylated ligands.
Compound receptor occupancy was defined as the decrease in the number of integrin β7+ or integrin β7-lo cells binding biotinylated rhMAdCAM-1 or rhVCAM-1, respectively.
Receptor occupancy was calculated with the following equation: 100−((% ligand-positive cells with compound/% ligand-positive cells DMSO)*100) In Vivo T Lymphocyte Trafficking Analysis in Mouse Model of Colitis

[2] = target: T2, integrin α4β7 (RPMI8866 human cells adhering to MAdCAM-1) (Homo sapiens, UniProt P13612+P26010); experiment: Integrin α4β7-MAdCAM cell adhesion assay (RPMI8866 cells); settings: RPMI8866 cells adhering to MAdCAM; read-out: RPMI8866 Adhesion α4β7/MAdCAM IC50
T2 construct: RMP18866 cells, which express integrin α4β7; host or cells: RPMI8866
T2 sequence (P13612 34-1032): T1 sequence (P13612 34-1032)
T2 sequence (P26010 20-798): T1 sequence (P26010 20-798)
Outline: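 Adhesion was read by calcein fluorescence. RPMI8866 cells were labelled at 10 million cells/ml with […] calcein (37° C., 30 min) and washed twice in PBS before reading. Dose-response values were corrected by subtracting cell-free control well fluorescence.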

[3] = target: T3, integrin α4β1 (RAMOS human cells adhering to VCAM-1) (Homo sapiens, UniProt P05556+P13612); experiment: Integrin α4β1-VCAM cell adhesion assay (RAMOS cells); settings: for IC50: Ramos cells adhering to VCAM, read-out: Ramos Adhesion α4β1/VCAM IC50
T3 construct: Ramos cells, which express integrin α4β1; host or cells: RAMOS
Protocol: Integrin α4β1-VCAM Cell Adhesion Assay
The plate was incubated overnight at 4° C. and washed twice with 150 μl per well wash buffer (0.05% Tween 20 in PBS), blocked with 250 μl per well blocking buffer (1% non-fat dry milk in PBS), for 1 hour at room temperature. During blocking step, RAMOS cells were resuspended at 10 million cells/ml in PBS containing […] and incubated at 37° C. for 30 min in a 50 ml tube. […] The plate was emptied by inverting and blotting on paper towels and washed manually twice with PBS. […] To calculate the dose response, the fluorescence value of control wells not containing cells was subtracted from each test well.

T3 sequence (P05556 21-798, one chain of several): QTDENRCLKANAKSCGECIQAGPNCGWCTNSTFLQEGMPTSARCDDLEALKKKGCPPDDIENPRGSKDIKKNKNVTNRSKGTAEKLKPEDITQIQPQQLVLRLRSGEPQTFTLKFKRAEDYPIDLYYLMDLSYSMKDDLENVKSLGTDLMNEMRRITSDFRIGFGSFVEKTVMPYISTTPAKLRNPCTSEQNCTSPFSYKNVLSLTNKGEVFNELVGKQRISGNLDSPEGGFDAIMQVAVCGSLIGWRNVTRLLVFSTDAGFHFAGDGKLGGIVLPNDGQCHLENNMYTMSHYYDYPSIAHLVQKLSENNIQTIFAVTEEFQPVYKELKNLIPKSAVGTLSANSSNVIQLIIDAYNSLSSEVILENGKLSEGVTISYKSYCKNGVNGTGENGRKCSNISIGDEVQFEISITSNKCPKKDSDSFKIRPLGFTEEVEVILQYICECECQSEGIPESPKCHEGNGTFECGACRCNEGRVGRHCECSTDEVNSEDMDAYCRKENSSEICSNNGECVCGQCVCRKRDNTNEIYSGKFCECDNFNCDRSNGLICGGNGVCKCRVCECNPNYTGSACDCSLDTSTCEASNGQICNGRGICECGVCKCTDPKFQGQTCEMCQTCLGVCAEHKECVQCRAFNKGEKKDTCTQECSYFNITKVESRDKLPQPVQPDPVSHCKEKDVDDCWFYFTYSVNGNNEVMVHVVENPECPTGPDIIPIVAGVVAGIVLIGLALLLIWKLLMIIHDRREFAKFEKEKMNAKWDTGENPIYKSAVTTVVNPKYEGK

IC50 [2] [nM]	IC50 [1] [nM]	Structure (SMILES)	receptor occupancy at low concentrations ([1]; low concentrations) [%]	IC50 [3] [nM]	Ratio Ramos/RPMI ([3]; ratio of cell adhesion IC50s, Ramos α4β1/VCAM over RPMI8866 α4β7/MAdCAM)
		CC(C)C[C@@H]1NC(=O)c2ccc(-c3ccc(N4CCNCC4)cc3)c(c2)CNC(=O)[C@@H]2CCCN2[C@H](C(=O)NC(C)(C)C)[C@H](C)NC(=O)[C@H]([C@@H](C)O)NC(=O)[C@H](CC(=O)O)NC1=O [Compound 340]	50		
42	68	CC(C)C[C@@H]1NC(=O)c2ccc(-c3ccc(N4CCN(C(=O)Cc5cccc(CC(=O)N6CCN(c7ccc(-c8ccc9cc8CNC(=O)[C@@H]8CCCN8[C@H](C(=O)NC(C)(C)C)[C@H](C)NC(=O)[C@H]([C@@H](C)O)NC(=O)[C@H](CC(=O)O)NC(=O)[C@H](CC(C)C)NC9=O)cc7)CC6)c5)CC4)cc3)c(c2)CNC(=O)[C@@H]2CCCN2[C@H](C(=O)NC(C)(C)C)[C@H](C)NC(=O)[C@H]([C@@H](C)O)NC(=O)[C@H](CC(=O)O)NC1=O [Compound 462]			
	132	CC(C)C[C@@H]1NC(=O)c2ccc(-c3ccc(N4CCN(C(=O)c5ccnc(-c6cc(C(=O)N7CCN(c8ccc(-c9ccc%10cc9CNC(=O)[C@@H]9CCCN9[C@H](C(=O)NC(C)(C)C)[C@H](C)NC(=O)[C@H]([C@@H](C)O)NC(=O)[C@H](CC(=O)O)NC(=O)[C@H](CC(C)C)NC%10=O)cc8)CC7)ccn6)c5)CC4)cc3)c(c2)CNC(=O)[C@@H]2CCCN2[C@H](C(=O)NC(C)(C)C)[C@H](C)NC(=O)[C@H]([C@@H](C)O)NC(=O)[C@H](CC(=O)O)NC1=O [Compound 465]			
29	46	CC(C)C[C@@H]1NC(=O)c2ccc(-c3ccc(N4CCN(C(=O)c5ccc6cc(C(=O)N7CCN(c8ccc(-c9ccc%10cc9CNC(=O)[C@@H]9CCCN9[C@H](C(=O)NC(C)(C)C)[C@H](C)NC(=O)[C@H]([C@@H](C)O)NC(=O)[C@H](CC(=O)O)NC(=O)[C@H](CC(C)C)NC%10=O)cc8)CC7)ccc6c5)CC4)cc3)c(c2)CNC(=O)[C@@H]2CCCN2[C@H](C(=O)NC(C)(C)C)[C@H](C)NC(=O)[C@H]([C@@H](C)O)NC(=O)[C@H](CC(=O)O)NC1=O [Compound 471]			
21	124	CC(C)C[C@@H]1NC(=O)c2ccc(-c3ccc(N4CCN(C(=O)c5cc(C(=O)N6CCN(c7ccc(-c8ccc9cc8CNC(=O)[C@@H]8CCCN8[C@H](C(=O)NC(C)(C)C)[C@H](C)NC(=O)[C@H]([C@@H](C)O)NC(=O)[C@H](CC(=O)O)NC(=O)[C@H](CC(C)C)NC9=O)cc7)CC6)cc(C(F)(F)F)c5)CC4)cc3)c(c2)CNC(=O)[C@@H]2CCCN2[C@H](C(=O)NC(C)(C)C)[C@H](C)NC(=O)[C@H]([C@@H](C)O)NC(=O)[C@H](CC(=O)O)NC1=O [Compound 477]			
25	104	CC(C)C[C@@H]1NC(=O)c2ccc(-c3ccc(N4CCN(C(=O)C[C@H](N)C(=O)N5CCN(c6ccc(-c7ccc8cc7CNC(=O)[C@@H]7CCCN7[C@H](C(=O)NC(C)(C)C)[C@H](C)NC(=O)[C@H]([C@@H](C)O)NC(=O)[C@H](CC(=O)O)NC(=O)[C@H](CC(C)C)NC8=O)cc6)CC5)CC4)cc3)c(c2)CNC(=O)[C@@H]2CCCN2[C@H](C(=O)NC(C)(C)C)[C@H](C)NC(=O)[C@H]([C@@H](C)O)NC(=O)[C@H](CC(=O)O)NC1=O [Compound 492]			
		CC(C)C[C@@H]1NC(=O)c2ccc(-c3ccc(N4CCN(C(=O)CCOCCOCCNC(=O)COCC(=O)NCCOCCOCCC(=O)N5CCN(c6ccc(-c7ccc8cc7CNC(=O)[C@@H]7CCCN7[C@H](C(=O)NC(C)(C)C)[C@H](C)NC(=O)[C@H]([C@@H](C)O)NC(=O)[C@H](CC(=O)O)NC(=O)[C@H](CC(C)C)NC8=O)cc6)CC5)CC4)cc3)c(c2)CNC(=O)[C@@H]2CCCN2[C@H](C(=O)NC(C)(C)C)[C@H](C)NC(=O)[C@H]([C@@H](C)O)NC(=O)[C@H](CC(=O)O)NC1=O [Compound 506]		11000	

Structure (SMILES)	IC50 [2] [nM]	IC50 [1] [nM]	receptor occupancy at low concentrations ([1]; low concentrations) [%]	IC50 [3] [nM]	Ratio Ramos/RPMI ([3]; ratio of cell adhesion IC50s, Ramos α4β1/VCAM over RPMI8866 α4β7/MAdCAM)
CC(C)C[C@@H]1NC(=O)c2ccc(-c3ccc(N4CCN(C(=O)c5cc6ccccc6c(Cc6c(O)c(C(=O)N7CCN(c8ccc(-c9ccc%10cc9CNC(=O)[C@@H]9CCCN9[C@H](C(=O)NC(C)(C)C)[C@H](C)NC(=O)[C@H]([C@@H](C)O)NC(=O)[C@H](CC(=O)O)NC(=O)[C@H](CC(C)C)NC%10=O)cc8)CC7)cc7ccccc67)c5O)CC4)cc3)c(c2)CNC(=O)[C@@H]2CCCN2[C@H](C(=O)NC(C)(C)C)[C@H](C)NC(=O)[C@H]([C@@H](C)O)NC(=O)[C@H](CC(=O)O)NC1=O [Compound 502]	102			779	8
